In test [1] the test system is plasma LPA 18:1 and LPA 18:2. The test is described as follows: Human plasma ex vivo assay (LPA 18:1 / 18:2 by LC-MS/MS). The test is classed as biochemical. The following applies: 37° C., 2 hours. The procedure, abridged:
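Human plasma incubated 2 h at 37° C with compound (8 points, 1:3 dilution, top 10 μM, 0.1% DMSO), then quenched with 0.1% FA containing LPA 17:0 internal standard.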

Test [2] addresses ATX (Homo sapiens (Human), UniProt Q13822). The test is described as follows: ATX enzyme inhibition assay (Amplex UltraRed/choline oxidase/HRP, 16:0 Lyso PC substrate). The test is classed as biochemical. The method, then: All compounds were prepared as a 10 mM DMSO stock solution.
Solutions at pH 8.5 and pH 7.5 were prepared respectively with the following formulations:
All compounds, including the positive control compound, were diluted 5-fold from 10 mM to 2 mM with DMSO in the first step. The mixture was then diluted to 100 μM with 1× assay buffer.
3. Separate Detection of Compounds with 1× Assay Buffer at Two pH Values:
a) 5 μL of 10× compound diluent was added to a 384-well plate (Greiner 781209) using a motorized pipette (see the “experimental preparation” step). 5 μL of 1× assay buffer containing 5% DMSO was added to both negative and positive control wells. The plate was centrifuged at 300 rpm for 1 minute at room temperature.
b) 2× ATX ([…]) was prepared with 1× assay buffer, and 25 μL of 2× ATX was added to the plate using a motorized pipette. 25 μL of 1× assay buffer was added to the negative control wells and 25 μL of 2× ATX was added to the positive control wells. The plate was centrifuged at 300 rpm for 1 minute at room temperature.
The plate was incubated at room temperature for 10 minutes.
c) 2.5× working solution containing Amplex UltraRed reagent (125 μM), HRP (2.5 U/mL), choline oxidase (1.25 U/mL), and 16:0 Lyso PC (75 μM) was prepared with 1× assay buffer. 20 μL of 2.5× working solution was added to all reaction wells using a motorized pipette. The plate was centrifuged at 300 rpm for 1 minute at room temperature.
d) The plate was detected by SpectraMax with the following procedures: fluorescence mode; excitation at 550 nm; emission at 590 nm; kinetics; read once every 2 minutes; read continuously for 60 minutes.
The calculation formula of % inhibition (i.e., % inhibition rate) was as follows: […]
V0: X-axis is taken as 0 to 30 minutes, Y-axis is taken as fluorescence readings, and the slope corresponding to the straight line fitted by the software GraphPad Prism 8 is the initial response rate.
V0max: Average V0 of the positive control wells in the plate.
V0min: Average V0 of the negative control wells in the plate.
The IC50 of the compounds was calculated from a nonlinear regression line (dose-initial response rate) fitted by % inhibition and log value of compound concentration using the software GrahPad Prism 8.

The mark [3] stands for this setting: LPA 18:1, read-out: Human plasma ex vivo assay IC50 (18:1 LPA).
[4] abbreviates: LPA 18:2, read-out: Human plasma ex vivo assay IC50 (18:2 LPA).
Where [5] appears, read: assay buffer pH 8.5, read-out: IC50 (nM) pH 8.5.
[6] abbreviates: assay buffer pH 7.5, read-out: IC50 (nM) pH 7.5.

Molecules are shown by their SMILES. Like-named read-outs stand apart in the source and are kept apart here.

Drawing on patent US20250051321A1, “TRICYCLIC DERIVATIVE AND PREPARATION METHOD THEREFOR AND APPLICATION THEREOF” (SHANGHAI JEMINCARE PHARMACEUTICAL CO., LTD., priority 2021, published 2025), this text covers IC50 for 13 compounds.

The term IC50 denotes the concentration that inhibits the measured activity by half.

As to `CN(c1nc(-c2ccc(F)cc2)c(C#N)s1)c1c2c(nc3c(F)cc(N4CCN(CC(=O)N5CC(C)(O)C5)CC4)cc13)[C@@H](O)CC2` (single isomer, unassigned) [Example E10-a], the IC50 in test [1] (setting [3]) is 384 nM; in test [1] (setting [4]), 430 nM; in test [2] (setting [5]), 17.9 nM.

On to `CN(c1nc(-c2ccc(F)cc2)c(C#N)s1)c1c2c(nc3c(F)cc(N4CCN(CC(=O)N5CC(C)(O)C5)CC4)cc13)[C@H](O)CC2` (single isomer, unassigned) [Example E10-b], for which the results for the IC50 in test [1] (setting [3]), in test [1] (setting [4]) and in test [2] (setting [5]) were 263 nM, 261 nM and 14.4 nM, respectively.

For the compound `CN(c1nc(-c2ccc(F)cc2)c(C#N)s1)c1c2c(nc3c(F)cc(N4CC5(CN(C(=O)[C@@H]6CCOC6)C5)C4)cc13)[C@@H](O)CC2` (single isomer, unassigned) [Example E13-a], the values for the IC50 in test [1] (setting [3]), in test [1] (setting [4]) and in test [2] (setting [5]) were 385 nM, 385 nM and 19.8 nM, respectively.

Take `CN(c1nc(-c2ccc(F)cc2)c(C#N)s1)c1c2c(nc3c(F)cc(N4CC5(CN(C(=O)C6(O)CCOCC6)C5)C4)cc13)[C@@H](O)CC2` (single isomer, unassigned) [Example E15-a]: the figures for the half-inhibitory concentration (IC50) in test [1] (setting [3]), in test [1] (setting [4]) and in test [2] (setting [5]) were 392 nM, 388 nM and 14.9 nM, respectively.

Regarding `CN(c1nc(-c2ccc(F)cc2)c(C#N)s1)c1c2c(nc3c(F)cc(N4CC5(CN(C(=O)[C@]6(O)CCOC6)C5)C4)cc13)[C@H](O)CC2` (single isomer, unassigned) [Example E19-1a], the values for the 50% inhibitory concentration (IC50) in test [1] (setting [3]), in test [1] (setting [4]) and in test [2] (setting [5]) were 207 nM, 362 nM and 22.9 nM, respectively.

For `CN(c1nc(-c2ccc(F)cc2)c(C#N)s1)c1c2c(nc3c(F)cc(N4CC5(CN(C(=O)[C@]6(O)CCOC6)C5)C4)cc13)[C@@H](O)CC2` (single isomer, unassigned) [Example E19-1b], the IC50 in test [1] (setting [3]) was 218 nM; in test [1] (setting [4]), 479 nM; in test [2] (setting [5]) it was 27.2 nM.

Turning to `CN(c1nc(-c2ccc(F)cc2)c(C#N)s1)c1c2c(nc3c(F)cc(N4CC5(CN(C(=O)[C@@]6(O)CCOC6)C5)C4)cc13)[C@@H](O)CC2` (single isomer, unassigned) [Example E19-2a], the IC50 was 207 nM in test [1] (setting [3]), 203 nM in test [1] (setting [4]) and 26.7 nM in test [2] (setting [5]).

As to `CN(c1nc(-c2ccc(F)cc2)c(C#N)s1)c1c2c(nc3c(F)cc(N4CC5(CN(C(=O)[C@@]6(O)CCOC6)C5)C4)cc13)[C@@H](O)CC2` (single isomer, unassigned) [Example E19-2b], the IC50 came to 113 nM in test [1] (setting [3]), 310 nM in test [1] (setting [4]) and 334 nM in test [2] (setting [5]).

Take `CN(c1nc(-c2ccc(F)cc2)c(C#N)s1)c1c2c(nc3ccc(N4CCN(CC(=O)N5CC(O)C5)CC4)cc13)CCC2` [Example A1]: the IC50 in test [1] (setting [3]) came to 183 nM; in test [1] (setting [4]) it was 196 nM; in test [2] (setting [6]), 138 nM; in test [2] (setting [5]) it was 27.7 nM.

Take `CN(c1nc(-c2ccc(F)cc2)c(C#N)s1)c1c2c(nc3ccc(N4CCN(CC(=O)N5CC(O)C5)CC4)cc13)COC2` [Example A2]: the IC50 in test [1] (setting [3]) came out at 85 nM; in test [1] (setting [4]) it was 73.5 nM; in test [2] (setting [6]) it was 624 nM; in test [2] (setting [5]), 96.7 nM.

Regarding `CN(c1nc(-c2ccc(F)cc2)c(C#N)s1)c1c2c(nc3ccc(N4CCN(CC(=O)N5CC(O)C5)CC4)cc13)CCO2` [Example A3], the IC50 in test [1] (setting [3]) was determined as 109 nM; in test [1] (setting [4]) it was 103 nM; in test [2] (setting [6]) it was 214 nM; in test [2] (setting [5]), 27.8 nM.

With `CN(c1nc(-c2ccc(F)cc2)c(C#N)s1)c1c2c(nc3c(F)cc(N4CCN(CC(=O)N5CC(O)C5)CC4)cc13)CCC2` [Example A4], the half-inhibitory concentration (IC50) in test [1] (setting [3]) was 160 nM; in test [1] (setting [4]), 176 nM; in test [2] (setting [6]), 174 nM; in test [2] (setting [5]) it was 52.1 nM.

As for `CN(c1nc(-c2ccc(F)cc2)c(C#N)s1)c1c2c(nc3c(F)cc(N4CCN(CC(=O)N5CC(CO)C5)CC4)cc13)CCC2` [Example A5], the IC50 in test [1] (setting [3]) is 200 nM; in test [1] (setting [4]), 239 nM; in test [2] (setting [6]), 112 nM; in test [2] (setting [5]) it was 32.8 nM.
